Source: patent publication US11053233B2, “Solid form of (S)-[2-chloro-4-fluoro-5-(7-morpholin-4-yl-quinazolin-4-yl)phenyl]-(6-methoxy-pyridazin-3-yl)-methanol” (Merck Patent GmbH, priority 2017, dated 2021)
Values after ≈ are worked out from the molar mass of the structure shown.

Key:
[1] = tested on: DNA-PK autophosphorylation in cancer cell lines
[2] = biological target: DNA-dependent protein kinase (DNA-PK) (Homo sapiens, UniProt P78527); experiment: Inhibition of DNA-PK activity; assay type: biochemical
[3] = tested on: xenograft mouse models of human cancer (colon, lung, head and neck, pancreatic); experiment: Combination with ionizing radiation in six xenograft mouse models of human cancer; assay type: in vivo; conditions: oral, 10 min prior to each fraction; IR 2 Gy per day over five days (10 Gy); all models
Protocol: (§1) The therapeutic relevance of DNA-PK inhibition by the drug substance as such was investigated in vivo in combination with ionizing radiation (IR), a clinically established DSB-inducing treatment. The drug substance was tested for activity in six xenograft mouse models of human cancer. The models were chosen from different cancer indications (colon, lung, head and neck, pancreatic), and histological subtypes (adeno, squamous, large cell). Ionizing radiation was administered using a fractionated schedule of 2 Gy per day administered over five consecutive days (total radiation dose=10 Gy). […] 10 min prior to each fraction of radiation (ONC397-1-2AZ, ONC397-1-3AZ, ONC397-1-4AZ, ONC397-1-5AZ, ONC397-1-8AZ).
(§2) The radiotherapy enhancing effect was quantified across the tested models by the time to reaching 400% initial volume for the 150 mg/kg study arms. The resulting Kaplan-Meier plots were compared by the log-rank test.

HCT116 = conditions: 150 mg/kg oral plus IR 5 x 2 Gy
Protocol: as §1, §2

NCI-H460 = conditions: 150 mg/kg oral plus IR 5 x 2 Gy
Protocol: as §1, §2

A549 = conditions: 150 mg/kg oral plus IR 5 x 2 Gy
Protocol: as §1, §2

[4] = Solubility measurements in biorelevant media (shake flask 24 h, HPLC); assay type: physicochemical
Protocol: Solubility measurements were carried out in accordance with the method described further below.
• Test media: • SGF (Simulated gastric fluid without pepsin) pH 1.2: • 2.0 g sodium chloride were placed in a 1 L volumetric flask and dissolved in around 500 mL water. 80 mL of 1 M hydrochloric acid solution were added and the volume made up to 1 L. • The resulting SGF solution contains: 34.2 mM sodium chloride • FaSSIF (Fasted State Simulated Intestinal Fluid) pH 6.5: • 0.224 g SIF powder (obtained from biorelevant.com) were dissolved in FaSSIF buffer in a 100 mL volumetric flask and made up to volume. The FaSSIF medium was allowed to equilibrate for 2 h at ambient room temperature and used within 48 h of preparation. FaSSIF buffer can be made up by dissolving 0.42 g NaOH pellets, 3.44 g of monobasic sodium phosphate anhydrous and 6.19 g sodium chloride in about 0.9 L of purified water, adjusting the pH to […] with 1 N NaOH or 1 N HCl and making up the volume to 1 L. • The resulting FaSSIF contains: 3 mM sodium taurocholate; 0.75 mM lecithin; 105.9 mM sodium chloride; 28.4 mM monobasic sodium phosphate and 8.7 mM sodium hydroxide. • FeSSIF (Fed State Simulated Intestinal Fluid) pH 5.0: • 1.12 g SIF powder (biorelevant.com) were dissolved in FeSSIF buffer in a 100 mL volumetric flask and made up to volume. It was used within 48 h of preparation. FeSSIF buffer can be made up by dissolving 4.04 g NaOH pellets, 8.65 g of glacial acetic acid and 11.87 g sodium chloride in about 0.9 L of purified water, adjusting the pH to […] with 1 N NaOH or 1 N HCl and making up the volume to 1 L. • The resulting FeSSIF contains: 15 mM sodium taurocholate; 3.75 mM lecithin; 203.2 mM sodium chloride; 101.0 mM sodium hydroxide and 144.1 mM acetic acid. • Solubility Measurements: • Excess amount of substance was weighed into Uniprep® Whatman vials, to which 1 mL of test medium were added. The suspension was shaken for 24 h at 450 rpm (rounds per minute) at 37° C. The pH was measured at 1 h, 6 h and 24 h and the vials were checked for undissolved compound. The pH of the medium was adjusted wherever necessary. After 24 h, the solutions were filtered through 0.2 μm PTFE membrane filter and the filtrates analysed using HPLC after suitable dilutions. • HPLC: • Apparatus: Agilent 1100 • Column: Chromolith® Performance RP-18e100-3 mm, Art. 1.52001 (h) • Wavelength: 282 nm • Injection volume: 5 μL • Column Oven: 37° C. • Auto sampler: 37° C. • Eluent A for HPLC: Formic Acid:Ultrapure water (1:999;v/v) • Eluent B for HPLC: Formic Acid+Acetonitrile (1:999;v/v) • HPLC-Gradient: […]

[5] = Long-term DS (drug substance) stability investigations; assay type: physicochemical; conditions: up to 40° C./75% relative humidity

## COc1ccc([C@@H](O)c2cc(-c3ncnc4cc(N5CCOCC5)ccc34)c(F)cc2Cl)nn1 [drug substance, (S)-[2-chloro-4-fluoro-5-(7-morpholin-4-yl-quinazolin-4-yl)phenyl]-(6-methoxy-pyridazin-3-yl)-methanol]
[1]
  Inhibition of DNA-PK autophosphorylation: potent inhibition
[2]
  Inhibition of DNA-PK activity: potent and selective inhibitor
[3]
  Enhancement of the radiation effect: strong enhancement of the radiation effect
HCT116
  Enhancement ratio (time to reaching 400% initial volume): 1.5
NCI-H460
  Enhancement ratio (time to reaching 400% initial volume): 2.6
A549
  Enhancement ratio (time to reaching 400% initial volume): 1.5

## COc1ccc([C@@H](O)c2cc(-c3ncnc4cc(N5CCOCC5)ccc34)c(F)cc2Cl)nn1 [anhydrous disordered crystalline form, (S)-[2-chloro-4-fluoro-5-(7-morpholin-4-yl-quinazolin-4-yl)phenyl]-(6-methoxy-pyridazin-3-yl)-methanol]
[4]; at pH 1.2
  Solubility compared with the anhydrous ordered crystalline compound: more than double the solubility of the crystalline form
[4]; fasted state simulated intestinal fluid (FaSSIF), pH 6.5, thermodynamic from solid, FaSSIF, pH of medium 6.5, 37 °C
  solubility at 24 h: 10 ± 1 µg/mL (≈ 20.8 µM)
[4]; fed state simulated intestinal fluid (FeSSIF), pH 5, thermodynamic from solid, FeSSIF, pH of medium 5.0, 37 °C
  solubility at 24 h: 56 ± 2 µg/mL (≈ 116 µM)
[4]; general statement
  Solubility compared with the anhydrous ordered crystalline compound: significantly better
[4]; simulated gastric fluid without pepsin (SGF), pH 1.2, simulated gastric fluid, thermodynamic from solid, SGF, pH of medium 1.2, 37 °C
  solubility at 24 h: 2020 ± 67 µg/mL (≈ 4200 µM)
[5]
  Chemical and physical stability: high chemical and physical stability
